Measurements reported in US12624049B2, “Salt and crystal forms of 4-amino-5-(6-(4-methylpiperazin-1-yl)-1H-benzo[d]imidazol-z-yl)thieno[2.3-b]pyridin-6(7H)-one” (UNIVERSITY HEALTH NETWORK, priority 2020, dated 2026).
Values after ≈ are worked out from the molar mass of the structure shown. Where a name gives a salt, the structure may show the parent alone. Read-outs that look alike come from different tables or passages of the source.

Key:
[1] = Solubility in water, SGF and FaSSIF (supernatant by HPLC/UPLC); format: physicochemical; conditions: for Solubility (mg/mL) water: stirred 1 h at ambient temperature, analyzed at 24 h; for Solubility (mg/mL) FaSSIF: fasted state simulated intestinal fluid buffer, target 2 mg/mL; for Solubility (mg/mL) FaSSIF / Solubility (mg/mL) SGF: 24 h at 37° C.; for Solubility (mg/mL) SGF: simulated gastric fluid buffer, target 10 mg/mL
Procedure: The compounds to be tested were prepared in 3 different media as described below.
Samples prepared in water: approximately 30-40 mg of test material was weighted into a glass vial. 1 mL of water was added. The sample was stirred for 1 h at ambient temperature and the sample was analyzed by HPLC at 24 h.
Samples prepared in simulated gastric fluid (SGF) buffer: approximately 40 mg of test material was weighted into a glass vial. 4 mL of SGF buffer was added to make a target concentration at 10 mg/mL. The sample was stirred for 24 h at 37° C. and the sample was analyzed by HPLC at 24 h.
Samples prepared in fasted state simulated intestinal fluid (FaSSIF) buffer: approximately 8 mg of test material was weighted into a glass vial. 4 mL of FassiF buffer was added to make a target concentration at 2 mg/mL. The sample was stirred for 24 h at 37° C. and the sample was analyzed by HPLC at 24 h.
The samples were stirred for 1 h at ambient temperature or 24 h at 37° C. The samples were then centrifuged and the resulting supernatants were analyzed by HPLC to determine the solubility.

[2] = Pharmacokinetics after single oral dose (powder in capsule), Compound (I) plasma level by LC/MS; format: in vivo, male Beagle dogs
Procedure: A single dose as powder in capsule of Compound (I), 1:1 Compound (I) mono HCl salt (Batch 3), di-HCl salt of Compound (I), and 1:1 Compound (I) tartrate salt was administrated to male Beagle dogs at either 125 mg/kg or 150 mg/kg. Blood samples were collected for up to 24 h and the plasma was analyzed for Compound (I) plasma level by LC/MS.

[3] = Hygroscopicity measurement by DVS apparatus; format: physicochemical; conditions: for Change in Mass (%) Water uptake at 30% RH / Change in Mass (%) Water uptake at 60% RH / Change in Mass (%) Water uptake at 90% RH: DVS, 25° C.
Procedure: In another embodiment, 1:1 Compound (I) tartrate salt is characterized by a hygroscopicity measurement, wherein water uptake is less than 4% (e.g. 2% or 1%) of the mass of the tartrate salt at 90% relative humidity (RH); or less than 2% (e.g. 1% or 0.5%) of the mass of the tartrate salt at 60% RH; or less than 1% (e.g. 0.5% or 0.1%) of the mass of the tartrate salt at 30% RH. The hygroscopicity in different relative humidity (RH) is measured under following conditions: • i) drying between 0.5 and 1.5 mg of the tartrate salt under a nitrogen atmosphere at 0% relative humidity for 2 hours; • ii) increasing or decreasing the relative humidity in steps of 10% from 0% to 90% then to 0%; • iii) maintaining the relative humidity at each step until the mass change compared to the mass of the original tartrate salt per minute is less than 0.01 (%/min), provided that minimum and maximum duration time at each step is 10 minutes and 180 minutes, respectively; and • iv) measuring the mass of the tartrate salt at the desired relative humidity (e.g., 90%, 60%, or 30%) and wherein steps i)-iv) are carried out at 25° C.
The compound to be tested is submitted to hygroscopicity test by means of a DVS apparatus. The testing parameters are in Table 5.

[4] = Long term stability under 3 storage conditions (appearance, HPLC purity/impurities, XRPD form); format: physicochemical; conditions: for Purity / Total amount of impurities: HPLC; for Crystalline form: XRPD
Procedure: A representative method used for stability evaluation is summarized Table 2.
Purity and stability of 4-amino-5-(6-(4-methylpiperazin-1-yl)-1H-benzo[d]imidazol-2-yl)thieno[2,3-b]pyridin-6(7H)-one (I) tartrate have been tested. Stability samples were prepared and stored under 3 different storage conditions: 2-8° C./ambient RH, 25° C./60% RH, and 40° C./75% RH. Stability samples were removed from their storage conditions within each pull window, and the samples were allowed to equilibrate to ambient conditions prior to analysis. The appearance was evaluated by visual inspection, purity and total amount of impurities were analyzed by HPLC and crystalline form was characterized by XRPD.

CN1CCN(c2ccc3[nH]c(-c4c(N)c5ccsc5[nH]c4=O)nc3c2)CC1 [Di-HCl salt, 4-amino-5-(6-(4-methylpiperazin-1-yl)-1H-benzo[d]imidazol-2-yl)thieno[2,3-b]pydidin-6(7H)-one (I) Di-Hydrochloride]
Solubility (mg/mL) water ([1]; Di-Hydrochloride): 3.3 mg/mL | AUC0−tlast ([2]; beagle dogs, oral dose 125 mg/kg, powder in capsule, plasma, up to 24 h, Di-Hydrochloride, 125 mg/kg): 6862 ng·h/mL | Cmax ([2]; beagle dogs, oral dose 125 mg/kg, powder in capsule, plasma, Di-Hydrochloride, 125 mg/kg): 530 ng/mL

CN1CCN(c2ccc3nc(-c4c(N)c5ccsc5[nH]c4=O)[nH]c3c2)CC1 [Free base, 4-amino-5-(6-(4-methylpiperazin-1-yl)-1H-benzo[d]imidazol-2-yl)thieno[2,3-b]pyridin-6(7H)-one]
Change in Mass (%) Water uptake at 30% RH [3]: 0.5% | Change in Mass (%) Water uptake at 60% RH [3]: 0.9% | Change in Mass (%) Water uptake at 90% RH [3]: 26% | Solubility (mg/mL) FaSSIF [1]: 0.09 mg/mL (≈ 237 µM) | Solubility (mg/mL) SGF [1]: 0.5 mg/mL (≈ 1310 µM) | Solubility (mg/mL) water [1]: 0.3 mg/mL (≈ 788 µM) | AUC0−tlast ([2]; beagle dogs, oral dose 125 mg/kg, powder in capsule, plasma, up to 24 h, 125 mg/kg): 2264 ng·h/mL | Cmax ([2]; male, beagle, dog, plasma, po, 125 mg/kg, beagle dogs, oral dose 125 mg/kg, powder in capsule, plasma, read-out: Cmax): 301 ng/mL

CN1CCN(c2ccc3nc(-c4c(N)c5ccsc5[nH]c4=O)[nH]c3c2)CC1 [Tartrate salt, 4-amino-5-(6-(4-methylpiperazin-1-yl)-1H-benzo[d]imidazol-2-yl)thieno[2,3-b]pyridin-6(7H)-one (I) tartrate]
Change in Mass (%) Water uptake at 30% RH [3]: 0.06% | Change in Mass (%) Water uptake at 60% RH [3]: 0.3% | Change in Mass (%) Water uptake at 90% RH [3]: 0.7% | Hygroscopicity (in words) ([3]; crystalline form, see Example 6): non-hygroscopic | Solubility (mg/mL) FaSSIF [1]: 0.02 mg/mL | Solubility in water and in simulated gastric fluids (in words) ([1]; see Example 7 and Table 7): improved solubility | Solubility (mg/mL) SGF [1]: 9.0 mg/mL | Purity ([4]; 5° C./ambient RH, 1 month): 100% | Total amount of impurities ([4]; 5° C./ambient RH, 1 month): 0.03% | Purity ([4]; 5° C./ambient RH, 3 month): 100% | Total amount of impurities ([4]; 5° C./ambient RH, 3 month): 0.0% | Purity ([4]; 5° C./ambient RH, 6 month): 100% | Total amount of impurities ([4]; 5° C./ambient RH, 6 month): 0.03% | Purity ([4]; 5° C./ambient RH, 12 month): 100% | Total amount of impurities ([4]; 5° C./ambient RH, 12 month): 0.03% | Purity ([4]; 5° C./ambient RH, Initial): 100% | Total amount of impurities ([4]; 5° C./ambient RH, Initial): 0.03% | Crystalline form ([4]; 5° C./ambient RH, Initial): Yes | Purity ([4]; 25° C./60% RH, 1 month): 100% | Total amount of impurities ([4]; 25° C./60% RH, 1 month): 0.02% | Purity ([4]; 25° C./60% RH, 3 month): 100% | Total amount of impurities ([4]; 25° C./60% RH, 3 month): 0.03% | Purity ([4]; 25° C./60% RH, 6 month): 100% | Total amount of impurities ([4]; 25° C./60% RH, 6 month): 0.03% | Purity ([4]; 25° C./60% RH, 12 month): 100% | Total amount of impurities ([4]; 25° C./60% RH, 12 month): 0.03% | Purity ([4]; 25° C./60% RH, Initial): 100% | Total amount of impurities ([4]; 25° C./60% RH, Initial): 0.03% | Crystalline form ([4]; 25° C./60% RH, Initial): Yes | Purity ([4]; 40° C./75% RH, 1 month): 100% | Total amount of impurities ([4]; 40° C./75% RH, 1 month): 0.02% | Purity ([4]; 40° C./75% RH, 3 month): 100% | Total amount of impurities ([4]; 40° C./75% RH, 3 month): 0.03% | Purity ([4]; 40° C./75% RH, 6 month): 100% | Total amount of impurities ([4]; 40° C./75% RH, 6 month): 0.03% | Purity ([4]; 40° C./75% RH, 12 month): 100% | Total amount of impurities ([4]; 40° C./75% RH, 12 month): 0.03% | Purity ([4]; 40° C./75% RH, Initial): 100% | Total amount of impurities ([4]; 40° C./75% RH, Initial): 0.03% | Crystalline form ([4]; 40° C./75% RH, Initial): Yes | Shelf life (in words) ([4]; see Example 8): extended shelf life | Plasma concentrations in dogs following oral administration (in words) ([2]; compared to the free base and the mono HCl salt): improved plasma concentrations | AUC(0-t) ([2]; male, beagle, dog, plasma, po, 150 mg/kg, beagle dogs, oral dose 150 mg/kg, powder in capsule, plasma, up to 24 h, read-out: AUC0−tlast): 6550 ng·h/mL | Cmax ([2]; male, beagle, dog, plasma, po, 150 mg/kg, beagle dogs, oral dose 150 mg/kg, powder in capsule, plasma, read-out: Cmax): 514 ng/mL

CN1CCN(c2ccc3nc(-c4c(N)c5ccsc5[nH]c4=O)[nH]c3c2)CC1 [Mono HCl salt (Batch 3)]
Change in Mass (%) Water uptake at 30% RH [3]: 3.7% | Change in Mass (%) Water uptake at 60% RH [3]: 6.1% | Change in Mass (%) Water uptake at 90% RH [3]: 38.3% | Solubility (mg/mL) FaSSIF ([1]; Batch 3): 0.22 mg/mL | Solubility (mg/mL) SGF ([1]; Batch 3): 9.0 mg/mL | Solubility (mg/mL) water ([1]; Batch 3): 10.2 mg/mL | AUC0−tlast ([2]; beagle dogs, oral dose 125 mg/kg, powder in capsule, plasma, up to 24 h, listed as Mono HCl (Batch 3), 125 mg/kg): 4354 ng·h/mL | Cmax ([2]; beagle dogs, oral dose 125 mg/kg, powder in capsule, plasma, listed as Mono HCl (Batch 3), 125 mg/kg): 547 ng/mL
